Where two headings read alike, the source gives them in different places.
Tested on: New Zealand white rabbits
Experiment: Effects on intraocular pressure (IOP) in rabbits, TONOPEN contact tonometer, topical unilateral application
Assay type: in vivo, rabbit
Details: for maximal reduction of IOP / IC50: topical; for maximal reduction of IOP: n=8; for IC50: Oryctolagus cuniculus; for persistence of the IOP-lowering effect / time at which the maximal effect on IOP was observed: after topical application; for IOP-lowering effect after pretreatment with luzindole: luzindole 100 μg/10 μL applied 30 min before (FIG. 4)
Procedure: IOP was measured using a TONOPEN contact tonometer supplied by Xomed (Jacksonville, Fla., USA). Ten microliters of the agents were applied topically and unilaterally to the cornea, whereas the contralateral eye received the same volume of saline solution. The corneas were anesthetized to avoid any discomfort associated with the use of the tonometer. Two measurements were made before application of the agents. Melatonin (Sigma, St. […] A single dose was tested in a single animal on a single day.

IC50 (read-out: IC50 for lowering IOP) [µg/mL] | IC50 (read-out: IC50 for lowering IOP, equivalent dose) [nM] | IC50 (equivalent of the IC50 dose (FIG. 3), read-out: IC50 for lowering IOP, equivalent dose) [nM] | IC50 for lowering IOP (dose-response 10 pg/10 μL to 1 mg/10 μL, topical (FIG. 3)) [ng/10 μL] | SMILES | maximal reduction of IOP (5-MCA-NAT, maximal at 100 pg/10 μL) [%] | persistence of the IOP-lowering effect [h] | time at which the maximal effect on IOP was observed [h] | maximal IOP response relative to melatonin (comparison of maximal responses) | IOP-lowering effect after pretreatment with luzindole | maximal reduction of IOP (melatonin, maximal at 10 μg/10 μL) [%] | effect on IOP when applied alone (100 μg/10 μL, over a duration of six hours)
423 ± 30 | 1.8 ± 0.1 | – | – | COC(=O)Nc1ccc2[nH]cc(CCNC(C)=O)c2c1 [Example 5-MCA-NAT, 5-(methoxycarbonylamino)-N-acetyltryptamine] | 43.1±3.65 | 10 | 2 | almost twice | abolished | – | –
– | – | 1.6 ± 0.1 | 363±23.0 | COc1ccc2[nH]cc(CCNC(C)=O)c2c1 [melatonin] | – | 3 | 1 | – | abolished | 24±4.4 | –
– | – | – | – | CC(=O)NCCc1c(Cc2ccccc2)[nH]c2ccccc12 [luzindole] | – | – | – | – | – | – | had no effect

From patent US6730707B2, “Method for reducing intraocular pressure using indole derivatives” (Inspire Pharmaceuticals, Inc., priority 2000, dated 2004)
